PubChem BioAssay AID2060893 (Molecular Pharmacology Branch, DTP, NCI, 2025)

System: K86415-001-R-J1-PDC complex spheroids, viability
Assay: Anticancer human tumor K86415-001-R-J1-PDC patient-derived lung adenocarcinoma cell line growth inhibition [RAS]
Conditions: for IC50: curve of first compound; for viability, T/C: stronger effect = lower value
From the text: RAS pathway inhibitors in Combinations in Complex Spheroids
A high-throughput screen of multi-cell type tumor spheroids was designed to identify active combinations of RAS pathway inhibitors and targeted small molecules. Complex spheroids include a stromal component modeled by human endothelial cells (HUVEC) and fibroblasts modeled by human mesenchymal stem cells (MSCs). The concentration ranges selected for each drug and investigational agent were based upon clinically achievable concentrations if the clinical Cmax of the agent was known.
Compounds. The drugs and investigational agents: abemaciclib (NSC768073), cobimetinib (NSC768068), divarasib (GDC6063, NSC841802), docetaxel (NSC628503), GDC-1971 (RLY-1971, NSC841576), gemcitabine (NSC613327), inavolisib (NSC800729), ipatasertib (NSC767898), KB-0742 (NSC834161), MRTX-1133 (NSC836407), osimertinib (NSC779217), RMC-4630 (NSC839698), RMC-6236 (NSC851965), RMC-6291 (NSC852671), Ro-3306 (NSC812927), sapanisertib (NSC764658), SN-38 (NSC673596), staurosporine (NSC755774), SY5609 (NSC837396), and tovorafenib (DAY101, NSC766906), were obtained from the National Cancer Institute (NCI) Developmental Therapeutics Program Chemical Repository. The FDA-approved anticancer drug set is available from the NCI Developmental Therapeutics Program. […] The stock solutions were prepared in dimethyl sulfoxide (DMSO, Sigma-Aldrich, St. Louis, MO, cat. D2650) at 800-fold the tested concentration and stored at -70 degrees C prior to their use. All drugs and investigational agents were tested over a range starting from a high concentration at or near the clinical Cmax and decreasing in half-log increments. If the clinical Cmax for an agent had not been determined, the highest concentration tested was 10 microM.
Cell Culture. All cells were maintained in an incubator at 37 degrees C and 5% CO2 with 95% humidity. The PDC lines were cultured according to standard operating procedures established by the NCI PDMR. All PDCs were thawed and cultured in Matrigel-coated flasks prepared with a working solution of 1X Ham's F-12 nutrient mix, without supplementation (Invitrogen, Waltham, MA, cat. 11765054), 100 U/mL penicillin-streptomycin (Invitrogen, cat. 15140122), and 2.5% Matrigel (Corning Inc., Corning, NY, cat. 354248) for the first three passages. The 362531-283-R-J2-PDC and 782815-120-R-J1-PDC lines were cultured in 6C/Colon 1B media, which includes advanced DMEM/F-12 (Thermo Fisher Scientific, cat. 12634028), 10 mM HEPES (Thermo Fisher Scientific, cat. 15630080), 1X GlutaMAX supplement (Thermo Fisher Scientific, cat. 35050061), 0.1 mg/mL primocin (InvivoGen, San Diego, CA, cat. ant-pm-2), 10% defined fetal bovine serum, heat inactivated (HyClone Laboratories Inc., Logan, UT, cat. SH30070.03HI), 50% L-WRN conditioned media (ATCC, cat. CRL-3276), 1.25 mM N-Acetyl-L-cysteine (Sigma-Aldrich, cat. A9165), 10 mM nicotinamide (Sigma-Aldrich, cat. N0636), 1X B-27 supplement (Thermo Fisher Scientific, cat. 17504044), 1X N-2 supplement (Thermo Fisher Scientific, cat. 17502048), 50 ng/mL human EGF (Thermo Fisher Scientific, cat. PHG0311), and 10 microM Y-27632 dihydrochloride (Tocris Bioscience, cat. 1254). The K12877-001-R-J1-PDC line was cultured in 6I media, which includes all 6C/Colon 1B media plus 10 ng/mL human FGF-10 (PeproTech, cat. 100-26), 1 ng/mL human FGF-2 (PeproTech, cat. 100-18B), 1 µM prostaglandin E2 (Tocris Bioscience, cat. 2296), […] hydrocortisone (Sigma-Aldrich, cat. H4001), and […] bovine insulin (Sigma-Aldrich, cat. I6634). The K86415-001-R-J1-PDC line was cultured in 6D media, which includes all 6C/Colon 1B media components minus the L-WRN conditioned media. The 485176-168-R4-J1-PDC was cultured in PANC media, which includes all 6C/Colon 1B media plus 100 ng/mL human FGF-10 (PeproTech, cat. 100-26), 500 nM SB-431542 (Selleckchem, cat. S1067), and 10 nM gastrin (Tocris Bioscience, cat. 3006). […]
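Further: spheroids exposed to agents for seven days before readout.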

Compound `CC1(O)CCCC1n1c(=O)c(C(F)F)cc2cnc(NC3CCN(S(C)(=O)=O)CC3)nc21` (configuration not stated) + CCn1c(-c2cc(N3CCN(C)CC3)cnc2C(C)OC)c2c3cc(ccc31)-c1csc(n1)CC(NC(=O)C1CC1C)C(=O)N1CCCC(N1)C(=O)OCC(C)(C)C2 has an IC50 (second compound 0.000949 µM) of 0.0316 µM, an IC50 (second compound 0.003 µM) of under 0.0316 µM and an IC50 (second compound 0.00949 µM) of under 0.0316 µM. The IC50 (second compound 0.03 µM) was under 0.0316 µM, the IC50 (second compound 0.0949 µM) was under 0.0316 µM and the IC50 (second compound 0.3 µM) was under 0.0316 µM. It also gave a viability, T/C (second compound 0.000949 µM, first compound 0.0316 µM) of 41.9%, a viability, T/C (second compound 0.000949 µM, first compound 0.1 µM) of 36.9% and a viability, T/C (second compound 0.000949 µM, first compound 0.316 µM) of 36.7%. It also gave a viability, T/C (second compound 0.000949 µM, first compound 1 µM) of 47%, a viability, T/C (second compound 0.000949 µM, first compound 3.16 µM) of 57.5% and a viability, T/C (second compound 0.000949 µM, first compound 10 µM) of 4.99%. The viability, T/C (second compound 0.003 µM, first compound 0.0316 µM) was 18.4%, the viability, T/C (second compound 0.003 µM, first compound 0.1 µM) was 19.2% and the viability, T/C (second compound 0.003 µM, first compound 0.316 µM) was 20%. It also gave a viability, T/C (second compound 0.003 µM, first compound 1 µM) of 23.5%, a viability, T/C (second compound 0.003 µM, first compound 3.16 µM) of 43% and a viability, T/C (second compound 0.003 µM, first compound 10 µM) of 4.43%. The viability, T/C (second compound 0.00949 µM, first compound 0.0316 µM) was 10.9%, the viability, T/C (second compound 0.00949 µM, first compound 0.1 µM) was 8.83% and the viability, T/C (second compound 0.00949 µM, first compound 0.316 µM) was 10.7%. The viability, T/C (second compound 0.00949 µM, first compound 1 µM) was 11.5%, the viability, T/C (second compound 0.00949 µM, first compound 3.16 µM) was 20.2% and the viability, T/C (second compound 0.00949 µM, first compound 10 µM) was 5.31%. It also gave a viability, T/C (second compound 0.03 µM, first compound 0.0316 µM) of 6.62%, a viability, T/C (second compound 0.03 µM, first compound 0.1 µM) of 6.19% and a viability, T/C (second compound 0.03 µM, first compound 0.316 µM) of 6.48%. It also gave a viability, T/C (second compound 0.03 µM, first compound 1 µM) of 10.7%, a viability, T/C (second compound 0.03 µM, first compound 3.16 µM) of 12.3% and a viability, T/C (second compound 0.03 µM, first compound 10 µM) of 4.06%. It also gave a viability, T/C (second compound 0.0949 µM, first compound 0.0316 µM) of 4.05%, a viability, T/C (second compound 0.0949 µM, first compound 0.1 µM) of 4.63% and a viability, T/C (second compound 0.0949 µM, first compound 0.316 µM) of 4.78%. The viability, T/C (second compound 0.0949 µM, first compound 1 µM) was 5.15%, the viability, T/C (second compound 0.0949 µM, first compound 3.16 µM) was 6.85% and the viability, T/C (second compound 0.0949 µM, first compound 10 µM) was 5.2%. It also gave a viability, T/C (second compound 0.3 µM, first compound 0.0316 µM) of 3.61%, a viability, T/C (second compound 0.3 µM, first compound 0.1 µM) of 5.05% and a viability, T/C (second compound 0.3 µM, first compound 0.316 µM) of 4.72%. The viability, T/C (second compound 0.3 µM, first compound 1 µM) was 5.49%, the viability, T/C (second compound 0.3 µM, first compound 3.16 µM) was 7.45% and the viability, T/C (second compound 0.3 µM, first compound 10 µM) was 4.66%.
